# From EPA's ToxValDB 9.5
# Values joined by “and” are separate entries in the source; they are usually repeats but may differ in a detail not shown here. Equal values may be shown once.
# Experiments:
# Rattus norvegicus [1] = details: oral
# Rattus norvegicus [2] = details: oral; remark: listed apart in the source
# Rattus norvegicus [3] = details: oral; remark: listed apart in the source
# Mus musculus [4] = details: subchronic; duration: 90 days; oral; gavage; M/F; CD1; hepatic
# Mus musculus [5] = details: M/F
# Rattus norvegicus [6] = system: Rattus norvegicus
# Rattus norvegicus [7] = details: Hershberger, oral, gavage
# Mus musculus [8] = details: oral, gavage, B6C3F1
# Rattus norvegicus [9] = details: oral, gavage, Fischer 344
# Canidae = details: chronic; duration: 1 years; oral; diet; M/F; Dog Other; gastric mucosal irritation
# [10] = subchronic, M, liver/body weight ratio and hepatic microsomal enzyme induction
# [11] = subchronic, M/F, hypoactivity and ataxia
# [12] = subchronic, oral, hepatotoxicity
# [13] = duration: 10 days, Sprague-Dawley, active + Negative + Antiandrogenic + anti-androgenic + significant decrease in serum testosterone at 800 (49% decrease at 400 NS) / …
# [14] = developmental, duration: 2 years, diet, M/F, reduced body weight gain, reduced pup weight and parental food consumption
# [15] = developmental, M/F, reduced pup weight and parental food consumption
# [16] = subchronic, M/F, reduced mean terminal body weight (males)
# [17] = subchronic, gavage, M, Induction of hepatic enzymes + liver histopathology
# [18] = subchronic, M/F, reduced body weight
# [19] = subchronic, M/F, reduced rbc and plasma cholinesterase activity
# [20] = subchronic, duration: 90 days, M/F, reduced body weight and neurotoxicity
structure (smiles),measurement,setting,value
"Brc1ccc(Br)cc1 [1,4-Dibromobenzene]",NOAEL,"Rattus norvegicus [1]; subchronic, duration: 45 days, gavage, Liver: Altered enzyme activities + Liver: Increased relative weight",10 mg/kg-day
same,LOAEL,Rattus norvegicus [2]; [10],20 mg/kg-day
same,NOAEL,Rattus norvegicus [2]; [10],10 mg/kg-day
"O=C1C=CC(=O)O1 [2,5-Furandione]",NOAEL,"Rattus norvegicus [1]; chronic, duration: 2 years, diet, Kidney: Lesions",10 mg/kg-day
same,NOAEL,"Rattus norvegicus [3]; subchronic, duration: 90 days, diet, M/F, Sprague-Dawley, Urinalysis: Pro increase + Absolute Organ Weight: Kidney increase + Relative Organ Weight: Liver increase, Kidney increase + Necropsy: …",< 100 mg/kg-day
same,NOAEL,"Rattus norvegicus [2]; chronic, M/F, no effects",10 mg/kg-day
same,LOAEL,"Rattus norvegicus [2]; reproduction developmental, M/F, renal lesions",20 mg/kg-day
CC(C)CO [2-Methyl-1-propanol],NOEL,"Rattus norvegicus [1]; subchronic, duration: 13 weeks, gavage, Nervous system: Ataxia + Nervous system: Hypoactivity",316 mg/kg-day
same,NOAEL,"Rattus norvegicus [3]; subchronic, duration: 90 days, gavage, M/F, CD, Deaths + Clinical Observation: Hypoactivity Ataxia Salivation Labored respiration Rales Prostration Hypothermia Emaciation + Body Weight …",316 mg/kg-day
same,NOAEL,"Rattus norvegicus [3]; subchronic, drinking water, Wistar",2430 mg/kg-day
same,LOAEL,Rattus norvegicus [2]; [11],1000 mg/kg-day
same,NOEL,Rattus norvegicus [2]; [11],316 mg/kg-day
"S=C1NCCN1 [4,5-Dihydro-2-mercaptoimidazole]",LOAEL,"Rattus norvegicus [1]; chronic, duration: 24 months, diet, Thyroid: Hyperplasia",0.25 mg/kg-day
same,NOEL,"Rattus norvegicus [3]; subchronic, duration: 13 weeks, diet, M/F, Fischer 344, Body Weight Changes: decrease + Food Consumption: decrease + Histopathology: Thyroid-Diffuse follicular cell hyperplasia Thyroid-Focal …",< 5.76 mg/kg-day
same,LOAEL,"Rattus norvegicus [2]; chronic, duration: 24 months, diet, M/F, increased incidence of thyroid hyperplasia",0.25 mg/kg-day
c1cc2c3c(cccc3c1)CC2 [Acenaphthene],LOAEL,Mus musculus [4],175 mg/kg-day
same,LOAEL,Mus musculus [5]; [12],350 mg/kg-day
same,NOAEL,Mus musculus [5]; [12],175 mg/kg-day
[Al+3].[P-3] [Aluminum phosphide],NOAEL,"Rattus norvegicus [1]; chronic, duration: 2 years, diet, Unspecified: Altered clinical parameters + Whole body: Altered weight",0.43 mg/kg-day
same,NOAEL,"Rattus norvegicus [2]; chronic, M/F, body weight and clinical parameters",0.043 mg/kg-day
[O]=[Sb](=[O])[O][Sb](=[O])=[O] [Antimony pentoxide],LOAEL,"Rattus norvegicus [1]; chronic, drinking water, blood: Altered chemistries + Whole body: Increased mortality",0.46 mg/kg-day
N#Cc1cc(Br)c(O)c(Br)c1 [Bromoxynil],NOEL,"Rattus norvegicus [1]; chronic, duration: 2 years, diet, None Observed",5 mg/kg-day
same,NOEL,"Rattus norvegicus [2]; chronic, duration: 2 years, diet, M/F, no effects",5 mg/kg-day
Nc1cc(Cl)cc(C(=O)O)c1Cl [Chloramben],LEL,"Mus musculus [5]; chronic, duration: 18 months, oral, diet, CD1, hepatocyte degeneration",15 mg/kg-day
NCl [Chloramine],NOAEL,"Rattus norvegicus [1]; chronic, duration: 2 years, drinking water, Kidney: Weight changes + Liver: Weight changes + Whole body: Weight changes",9.5 mg/kg-day
same,NOAEL,"Rattus norvegicus [2]; chronic, M/F, no effects",9.5 mg/kg-day
[Cr+3] [Chromium (III)],NOEL (% CrO3),"Rattus norvegicus [1]; chronic, duration: 840 days, diet, None Observed",5
same,LOAEL,"Rattus norvegicus [6]; subchronic, duration: 13 weeks, inhalation, nose only, M/F, Fisher 344/Crl BR VAF/Plus, respiratory",3 mg/m3
N#CC#N [Cyanogen],NOAEL,"Rattus norvegicus [1]; chronic, duration: 2 years, diet, Nerve: Myelin degeneration + Thyroid: Effects + Whole body: Decreased weight",21.6 mg/kg-day
CCOC(=O)C(C)OC(=O)c1cc(Oc2ccc(C(F)(F)F)cc2Cl)ccc1[N+](=O)[O-] (stereo not given) [Lactofen],LEL,"Mus musculus [5]; chronic, duration: 78 weeks, oral, hepatocytomegaly in males + Increased absolute and relative liver weight",1.5 mg/kg-day
O=c1ccc(=O)[nH][nH]1 [Maleic hydrazide],LOAEL,"Rattus norvegicus [1]; chronic, duration: 28 months, diet, Kidney: Altered function",500 mg/kg-day
same,LEL,"Rattus norvegicus [2]; chronic, duration: 2 years, diet, M/F, renal dysfunction",500 mg/kg-day
CCc1cccc(C)c1N(C(=O)CCl)C(C)COC (stereo not given) [Metolachlor],NOAEL,"Rattus norvegicus [1]; chronic, duration: 2 years, diet, Whole body: Decreased weight gain",23.4 mg/kg-day
same,LOEL,Rattus norvegicus [7]; [13],800 mg/kg-day and 500 mg/kg-day
same,NOEL,Rattus norvegicus [7]; [13],400 mg/kg-day and 300 mg/kg-day
same,LEL,Rattus norvegicus [2]; [14],150 mg/kg-day
same,NOEL,Rattus norvegicus [2]; [14],15 mg/kg-day
same,LEL,Rattus norvegicus [2]; [15],50 mg/kg-day
same,NOEL,Rattus norvegicus [2]; [15],15 mg/kg-day
"CN(C)c1ccccc1 [N,N-Dimethylaniline]",NOEL,"Rattus norvegicus [3]; subchronic, duration: 13 weeks, gavage, M/F, Fischer 344, Body Weight Changes: decrease + Histopathology: Spleen-Hematopoiesis, extramedullary Spleen-Hemosiderosis Kidney-Pigmentation Liver-…",< 31 mg/kg-day
same,NOEL,"Rattus norvegicus [3]; subchronic, gavage, M, Sprague-Dawley, Clinical Observation: Dark-red discoloration of skin R + Functional Observational Battery: Dark-red discoloration of skin R + Hematology: …",1 mg/kg-day
same,LOAEL,"Mus musculus [8]; short-term, duration: 15 days",188 mg/kg-day
same,NOAEL,"Mus musculus [8]; short-term, duration: 15 days",93.8 mg/kg-day
same,LOAEL,"Mus musculus [8]; subchronic, duration: 13 weeks",62.5 mg/kg-day
same,NOAEL,"Mus musculus [8]; subchronic, duration: 13 weeks",31.2 mg/kg-day
same,NOAEL,"Rattus norvegicus [9]; short-term, duration: 14 days",93.8 mg/kg-day
same,NOAEL,"Rattus norvegicus [9]; subchronic, duration: 13 weeks",31.2 mg/kg-day
same,LOAEL,"Mus musculus [5]; subchronic, oral, gavage, splenomegaly, increased splenic hemosiderosis and hematopoiesis",31.2 mg/kg-day
c1ccc2ccccc2c1 [Naphthalene],LOAEL,"Rattus norvegicus [6]; chronic, duration: 105 weeks, inhalation, M/F, Fischer 344, respiratory",52.4 mg/m3
same,LOAEL,"Rattus norvegicus [6]; reproduction developmental, duration: 9 days, oral, gavage, F, Sprague-Dawley, neurological",50 mg/kg-day
same,LOAEL,"Mus musculus [5]; chronic, inhalation, nasal effects: hyperplasia and metaplasia in respiratory and olfactory epithelium, respectively",52.4 mg/m3
same,LOAEL,Rattus norvegicus [2]; [16],200 mg/kg-day
same,NOAEL,Rattus norvegicus [2]; [16],100 mg/kg-day
[Ni] [Nickel],NOAEL,"Rattus norvegicus [1]; chronic, duration: 2 years, diet, Organs, major: Decreased organ weight + Whole body: Decreased body weight",7.8 mg/kg-day
same,NOAEL,"Rattus norvegicus [6]; chronic, duration: 2 years, inhalation, M/F, Fischer 344, respiratory",0.03 mg/m3
same,NOAEL,"Rattus norvegicus [6]; subchronic, duration: 13 weeks, inhalation, M/F, Fischer 344, respiratory",0.06 mg/m3
Brc1cc(Oc2cc(Br)c(Br)c(Br)c2Br)c(Br)c(Br)c1Br [Octabromodiphenyl ether],NOAEL,"Rattus norvegicus [1]; subchronic, duration: 90 days, gavage, Liver: Histological changes",2.5 mg/kg-day
same,NOAEL,"Rattus norvegicus [6]; subchronic, duration: 13 weeks, inhalation, nose only, M/F, Crl:CD(SD) BR, endocrine",1.1 mg/m3
same,LOAEL,Rattus norvegicus [2]; [17],5 mg/kg-day
same,NOAEL,Rattus norvegicus [2]; [17],2.51 mg/kg-day
CCCC1COC(Cn2cncn2)(c2ccc(Cl)cc2Cl)O1 (stereo not given) [Propiconazole],NOEL,"Rattus norvegicus [7]; duration: 7 days, Wistar, Neither + effect on AGD in 2500mg/kg at birth / significant increase in testis wt at PND 50 in 500 and 2500 mg/kg but not at PND 92 or …",2500 mg/kg-day
same,LEL,Canidae,6.25 mg/kg-day
same,NOEL,Canidae,1.25 mg/kg-day
CCN(CC)C(=S)[S-].[Na+] [Sodium diethyldithiocarbamate],NOEL,"Rattus norvegicus [1]; subchronic, duration: 90 days, Eye: Cataracts + Whole body: Decreased weight",30 mg/kg-day
same,LOAEL,"Rattus norvegicus [2]; chronic, M/F, Reduced body weight and cataracts in females",62.5 mg/kg-day
same,LOAEL,Rattus norvegicus [2]; [18],100 mg/kg-day
same,NOEL,Rattus norvegicus [2]; [18],30 mg/kg-day
CCOP(=S)(OCC)OP(=S)(OCC)OCC [Sulfotepp],NOEL,"Rattus norvegicus [1]; subchronic, duration: 3 months, diet, Blood: Decreased cholinesterase activity + Erythrocytes: Decreased cholinesterase activity",0.5 mg/kg-day
same,LEL,Rattus norvegicus [2]; [19],1 mg/kg-day
same,NOEL,Rattus norvegicus [2]; [19],0.5 mg/kg-day
Cc1cccc(O)c1 [m-Cresol],NOAEL,"Rattus norvegicus [1]; subchronic, duration: 90 days, gavage, Nervous system: Neurotoxicity + Whole body: Decreased weight gain",50 mg/kg-day
same,NOAEL,"Rattus norvegicus [3]; short-term, duration: 28 days, diet, M/F, Fischer 344, Body Weight Changes: Mean body weight decrease, Body weight gain decrease + Food Consumption: decrease + Absolute Organ Weight: Brain …",3000 ppm
same,NOAEL,"Rattus norvegicus [3]; subchronic, duration: 13 weeks, gavage, M/F, Sprague-Dawley, Deaths + Clinical Observation: Lethargy Tremors Hunched posture Rough hair coats + Body Weight Changes: Mean body weight decrease, Body …",50 mg/kg-day
same,LOAEL,Rattus norvegicus [2]; [20],150 mg/kg-day
same,NOAEL,Rattus norvegicus [2]; [20],50 mg/kg-day
